Tests used:
[1] = system: HBV replication in HepAD38 cells; experiment: Anti-HBV replication assay in HepAD38 cells (QPCR of extracellular HBV DNA); format: cell-based, HBV (genotype D, serotype ayw); conditions: Hepatitis B virus, 168 h, 7 days incubation, extracellular HBV DNA by QPCR, read-out: Anti-HBV EC50
Summary of the method: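 Read-out is QPCR of HBV DNA released into culture supernatant, converted to percent of vehicle control and fitted to give EC50. Cells were HepAD38 induced by tetracycline removal and dosed […] for 7 days.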

[2] = In vitro cytotoxicity assay (MTT cell viability) in HepG2 cells; format: cell-based, human; conditions: human
Summary of the method: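 Viability measured by MTT conversion, absorbance at 492 nm, as percent of vehicle-treated wells. Compounds spanned 30 μM to 1.0 nM in half-log steps over a 7-day exposure of parental HepG2 cells; CC50 derived by 4-parameter curve fit.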

For `Cc1cc(NC(=O)c2c(C)c(C(=O)C(=O)NC3CCN(c4cnccn4)CC3)n(C)c2C)ccc1F` [Example 659, N-(4-fluoro-3-methylphenyl)-1,2,4-trimethyl-5-(2-oxo-2-((1-(pyrazin-2-yl)piperidin-4-yl)amino)acetyl)-1H-pyrrole-3-carboxamide], the EC50 [1] was < 50 nM and the CC50 at 7 days [2] was > 30000 nM.

In the case of `Cc1cc(NC(=O)c2c(C)c(C(=O)C(=O)NC3CCN(C4CCSCC4)CC3)n(C)c2C)ccc1F` [Example 654, N-(4-fluoro-3-methylphenyl)-1,2,4-trimethyl-5-(2-oxo-2-((1-(tetrahydro-2H-thiopyran-4-yl)piperidin-4-yl)amino)acetyl)-1H-pyrrole-3-carboxamide], the EC50 [1] is reported as < 50 nM and the CC50 at 7 days [2] is reported as > 30000 nM.

For `Cc1cc(NC(=O)c2c(C)c(C(=O)C(=O)N[C@H](C(=O)O)C(C)C)n(C)c2C)ccc1F` [Example 100, (2-(4-((4-fluoro-3-methylphenyl)carbamoyl)-1,3,5-trimethyl-1H-pyrrol-2-yl)-2-oxoacetyl)-L-valine], the EC50 [1] was > 1000 nM and the CC50 at 7 days [2] was 5000 to 30000 nM.

In the case of `Cc1cc(NC(=O)c2c(C)c(C(=O)C(=O)N[C@H]3CC[C@H](CO)CC3)n(C)c2C)ccc1F` [Example 675, N-(4-fluoro-3-methylphenyl)-5-(2-(((1r,4r)-4-(hydroxymethyl)cyclohexyl)amino)-2-oxoacetyl)-1,2,4-trimethyl-1H-pyrrole-3-carboxamide], the EC50 [1] is reported as < 50 nM and the CC50 at 7 days [2] is reported as > 30000 nM.

For `Cc1cc(NC(=O)c2c(Cl)c(C(=O)C(=O)NCc3cnc(N)s3)n3c2CCC3)cnc1F` [Example 734, 5-(2-(((2-aminothiazol-5-yl)methyl)amino)-2-oxoacetyl)-6-chloro-N-(6-fluoro-5-methylpyridin-3-yl)-2,3-dihydro-1H-pyrrolizine-7-carboxamide], the EC50 [1] was < 50 nM and the CC50 at 7 days [2] was > 30000 nM.

For `CC(=O)N1CC[C@@H](NC(=O)C(=O)c2c(C)c(C(=O)Nc3ccc(F)c(C)c3)c(C)n2C)C1` [Example 664, (R)-5-(2-((1-acetylpyrrolidin-3-yl)amino)-2-oxoacetyl)-N-(4-fluoro-3-methylphenyl)-1,2,4-trimethyl-1H-pyrrole-3-carboxamide], the EC50 [1] was < 50 nM and the CC50 at 7 days [2] was > 30000 nM.

In the case of `Cc1cc(NC(=O)c2c(C)c(C(=O)C(=O)NC3(CO)CC(F)(F)C3)n(C)c2C)ccc1F` [Example 126, 5-(2-((3,3-difluoro-1-(hydroxymethyl)cyclobutyl)amino)-2-oxoacetyl)-N-(4-fluoro-3-methylpheenyl)-1,2,4-trimethyl-1H-pyrrole-3-carboxamide], the EC50 [1] is reported as < 50 nM and the CC50 at 7 days [2] is reported as > 30000 nM.

For `Cc1noc(C(NC(=O)C(=O)c2c(C)c(C(=O)Nc3ccc(F)c(C)c3)c(C)n2C)C2CCOCC2)n1` (stereo not shown) [Example 85, N-(4-fluoro-3-methylphenyl)-1,2,4-trimethyl-5-(2-(((3-methyl-1,2,4-oxadiazol-5-yl)(tetrahydro-2H-pyran-4-yl)methyl)amino)-2-oxoacetyl)-1H-pyrrole-3-carboxamide], the EC50 [1] was < 50 nM and the CC50 at 7 days [2] was > 30000 nM.

In the case of `Cc1cc(NC(=O)c2c(C)c(C(=O)C(=O)NCC(C)(C)CO)n3c2CCCC3)ccc1F` [Example 443, N-(4-fluoro-3-methylphenyl)-3-(2-((3-hydroxy-2,2-dimethylpropyl)amino)-2-oxoacetyl)-2-methyl-5,6,7,8-tetreahydroindolizine-1-carboxamide], the EC50 [1] is reported as < 50 nM and the CC50 at 7 days [2] is reported as 5000 to 30000 nM.

In the case of `Cc1c(C(=O)Nc2ccc(F)c(Cl)c2)c2n(c1C(=O)C(=O)NC1(CO)CC(F)(F)C1)CCCC2` [Example 465, N-(3-chloro-4-fluorophenyl)-3-(2-((3,3-difluoro-1-(hydroxymethyl)cyclobutyl)amino)-2-oxoacetyl)-2-methyl-5,,6,7,8-tetrahydroindolizine-1-carboxamide], the EC50 [1] is reported as < 50 nM and the CC50 at 7 days [2] is reported as 5000 to 30000 nM.

In the case of `O=C(NC1(CO)CC1)C(=O)c1c(Cl)c(C(=O)Nc2ccc(F)c(F)c2)c2n1CCC2` [Example 561, 6-chloro-N-(3,4-difluorohphenyl)-5-(2-((1-(hydroxymethyl)cyclopropyl)amino)-2-oxoacetyl)-2,3-dihydro-1H-pyrrolizine-7-carboxamide], the EC50 [1] is reported as < 50 nM and the CC50 at 7 days [2] is reported as > 30000 nM.

With `Cc1cc(NC(=O)c2cc(C(=O)C(=O)NC(C)(C)CO)n3c2CCCC3)cc(F)c1F` [Example 425, N-(3,4-difluoro-5-methylphenyl)-3-(2-((1-hydroxy-2-methylpropan-2-yl)amino)-2-oxoacetyl)-5,6,7,8-tetrahydroindolizine-1-carboxamide] the EC50 [1] was 50 to 499 nM and the CC50 at 7 days [2] was > 30000 nM.

With `Cc1cnc(C(NC(=O)C(=O)c2c(C)c(C(=O)Nc3ccc(F)c(C)c3)c(C)n2C)C2CC2)s1` (stereo not shown) [Example 83, 5-(2-((cyclopropyl(5-methylthiazol-2-yl)methyl)amino)-2-oxoacetyl)-N-(4-fluoro-3-methylphenyl)-1,2,4-trimethyl-1H-pyrrole-3-carboxamide] the EC50 [1] was < 50 nM and the CC50 at 7 days [2] was 5000 to 30000 nM.

In the case of `Cc1cc(NC(=O)c2c(C)c(C(=O)C(=O)N[C@H]3CC[C@@H](O)CC3)n(C)c2C)ccc1F` [Example 137, N-(4-fluoro-3-methylphenyl)-5-(2-(((1s,4s)-4-hydroxycyclohexyl)amino)-2-oxoacetyl)-1,2,4-trimethyl-1H-pyrrole-3-carboxamide], the EC50 [1] is reported as < 50 nM and the CC50 at 7 days [2] is reported as > 30000 nM.

In the case of `Cc1cc(NC(=O)c2c(C)c(C(=O)C(=O)NCC(C)(C)O)n3c2CCCC3)ccc1F` [Example 444, N-(4-fluoro-3-methylphenyl)-3-(2-((2-hydroxy-2-methylpropyl)amino)-2-oxoacetyl)-2-methyl-5,6,7,8-tetrahydroindolizine-1-carboxamide], the EC50 [1] is reported as < 50 nM and the CC50 at 7 days [2] is reported as 5000 to 30000 nM.

With `Cc1c(C(=O)Nc2ccc(F)nc2)c(C)n(C)c1C(=O)C(=O)NC1(C)CCOCC1` [Example 325, N-(6-fluoropyridin-3-yl)-1,2,4-trimethyl-5-(2-((4-methyltetrahydro-2H-pyran-4-yl)amino)-2-oxoacetyl)-1H-pyrrole-3-carboxamide] the EC50 [1] was 50 to 499 nM and the CC50 at 7 days [2] was > 30000 nM.

For `Cc1cc(Cl)cc(NC(=O)c2c(C)c(C(=O)C(=O)N[C@@H]3CCC[C@@H](O)C3)n(C)c2C)c1` [Example 688, N-(3-chloro-5-methylphenyl)-5-(2-(((1R,3R)-3-hydroxycyclohexyl)amino)-2-oxoacetyl)-1,2,4-trimethyl-1H-pyrrole-3-carboxamide], the EC50 [1] was < 50 nM and the CC50 at 7 days [2] was > 30000 nM.

For `Cc1cc(NC(=O)c2c(Cl)c(C(=O)C(=O)NCC(C)(C)O)n3c2CCC3)cnc1F` [Example 578, 6-chloro-N-(6-fluoro-5-methylpyridin-3-yl)-5-(2-((2-hydroxy-2-methylpropyl)amino)-2-oxoacetyl)-2,3-dihydro-1H-pyrrolizine-7-carboxamide], the EC50 [1] was 500 to 1000 nM and the CC50 at 7 days [2] was > 30000 nM.

For `Cc1cc(NC(=O)c2c(C)c(C(=O)C(=O)NC(C)(C)C(N)=O)n(CCO)c2C)ccc1F` [Example 72, 5-(2-((1-amino-2-methyl-1-oxopropan-2-yl)amino)-2-oxoacetyl)-N-(4-fluoro-3-methylphenyl)-1-(2-hydroxyethyl)-2,4-dimethyl-1H-pyrrole-3-carboxamide], the EC50 [1] was > 1000 nM and the CC50 at 7 days [2] was > 30000 nM.

For `Cc1c(C(=O)Nc2ccc(F)nc2)c(C)n(C)c1C(=O)C(=O)NC1(C(F)(F)F)CCOCC1` [Example 110, N-(6-fluoropyridin-3-yl)-1,2,4-trimethyl-5-(2-oxo-2-((4-(trifluoromethyl)tetrahydro-2H-pyran-4-yl)amino)acetyl)-1H-pyrrole-3-carboxamide], the EC50 [1] was < 50 nM and the CC50 at 7 days [2] was > 30000 nM.

For `Cc1c(C(=O)Nc2ccc(F)nc2)c(C)n(C)c1C(=O)C(=O)NC(C)(C)CO` [Example 120, N-(6-fluoropyridin-3-yl)-5-(2-((1-hydroxy-2-methylpropan-2-yl)amino)-2-oxoacetyl)-1,2,4-trimtehyl-1H-pyrrole-3-carboxamide], the EC50 [1] was 500 to 1000 nM and the CC50 at 7 days [2] was > 30000 nM.

In the case of `Cc1cc(NC(=O)c2c(C)c(C(=O)C(=O)N[C@@H]3CCCNC3=O)n(C)c2C)ccc1F` [Example 673, (R)-N-(4-fluoro-3-methylphenyl)-1,2,4-trimethyl-5-(2-oxo-2-((2-oxopiperidin-3-yl)amino)acetyl)-1H-pyrrole-3-carboxamide], the EC50 [1] is reported as < 50 nM and the CC50 at 7 days [2] is reported as > 30000 nM.

For `CC(C)(CO)NC(=O)C(=O)c1c(Cl)c(C(=O)Nc2ccnc(F)c2)c2n1CCCC2` [Example 512, 2-chloro-N-(2-fluoropyridin-4-yl)-3-(2-((1-hydroxy-2-methylpropan-2-yl)amino)-2-oxoacetyl)-5,6,7,8-tetrahydroindolizine-1-carboxamide], the EC50 [1] was 500 to 1000 nM and the CC50 at 7 days [2] was > 30000 nM.

With `CCNC(=O)N1CCC(C)(NC(=O)C(=O)c2c(C)c(C(=O)Nc3ccc(F)c(C)c3)c(C)n2C)CC1` [Example 614, N-ethyl-4-(2-(4-((4-fluoro-3-methylphenyl)carbamoyl)-1,3,5-trimethyl-1H-pyrrol-2-yl)-2-oxoacetamido)-4-methylpiperidine-1-carboxamide] the EC50 [1] was < 50 nM and the CC50 at 7 days [2] was > 30000 nM.

For `Cc1cc(NC(=O)c2c(C)c(C(=O)C(=O)NC3(C(F)(F)F)CCOCC3)n(CCF)c2C)ccc1F` [Example 230, N-(4-fluoro-3-methylphenyl)-1-(2-fluoroethyl)--2,4-dimethyl-5-(2-oxo-2-((4-(trifluoromethyl)tetrahydro-2H-pyran-4-yl)amino)acetyl)-1H-pyrrole-3-carboxamide], the EC50 [1] was < 50 nM and the CC50 at 7 days [2] was > 30000 nM.

For `Cc1cc(NC(=O)c2c(C)c(C(=O)C(=O)N[C@H](C)CO)n(C)c2C)ccc1F` [Example 219, (R)-N-(4-fluoro-3-methylphenyl)-5-(2-((1-hydroxypropan-2-yl)amino)-2-oxoacetyl)-1,2,4-trimethyl-1H-pyrrole-3-carboxamide], the EC50 [1] was < 50 nM and the CC50 at 7 days [2] was > 30000 nM.

Source: patent publication US20190375708A1 (VenatoRx Pharmaceuticals, Inc., priority 2018, published 2019)
